Each sequence was assayed on CD4+ T cells (assay: HLA restriction of mapped CD4+ BKV epitopes (ICS with peptide loaded HLA-matched and mismatched LCLs)). Conditions: CD4+ epitopes mapped in this study; T cells stimulated with peptide loaded HLA-matched and mismatched LCLs.
Format: cell-based, human
From the text: (§1) In order to characterize the T cell responses directed towards these antigens and precisely map the HLA class I and class II-restricted T cell responses, individual overlapping peptides (15 aa long overlapping by 10 aa) were sourced for LTA, STA and VP1 proteins for T cell epitope mapping. A two-dimensional peptide matrix was used to distribute all individual peptides into small overlapping peptide pools. The matrix is set up in the way that each peptide occurs once on the ordinate (FIG. 3). These peptide pools were used in ICS assays. After the ICS analysis, T cell response to the peptide pools was compared with the matrix to identify individual peptides. These individual peptides were further assessed for T cell expansion and ICS analysis to identify potential BK. Once the 15 mer peptide was identified, further mimimalization of the epitope sequence was carried out to identify the optimal T cell epitope sequence. The 15 mer peptide sequences were trimmed from both N- and C-terminus to a minimal of 9 aa long peptides. Once the minimal peptide sequence was identified, further confirmation was carried out using limiting dose titration ICS assay. After mapping minimal epitope sequence, the HLA restriction of the epitope was identified by stimulating T cells using peptide loaded HLA-matched and mismatched LCLs.
In order to map the T cell epitope further analysis was carried out using sub pools of STA peptides (12 pools) designed based on the two dimensional matrix shown in FIG. 3. […] Similar epitope mapping process was carried out for other CD4^+ and CD8^+ T cell epitopes.
CFTQWFGLDLTEETL [JCV variant […]] was tested, and the “HLA Restriction” value was “DRB1*03/04”. FNVPKRRYWLFKGPI [JCV variant […]] was tested, and the “HLA Restriction” value was “DRB1*15”. With GGDEDKMKRMNTLYK [JCV variant […]] the “HLA Restriction” value was “DRB1*13”. For GTQQWRGLARYFKIR [JCV variant […]], the “HLA Restriction” value was “DRB1*11/8”. For KMKRMNTLYKKMEQD [JCV variant […]], the “HLA Restriction” value was “DRB1*13”. In the case of RGLARYFKIRLRKRS [JCV variant […]], the “HLA Restriction” value is reported as “DRB1*11”. RKAYLRKCKEFHPDK [JCV variant […]] was tested, and the “HLA Restriction” value was “DRB1*13”. For RRYWLFKGPIDSGKT [JCV variant […]], the “HLA Restriction” value was “DRB1*15”. For WDEDLFCHEDMFASD [JCV variant […]], the “HLA Restriction” value was “DQB5*01”.

Each sequence was assayed on CD8+ T cells (assay: HLA restriction of mapped CD8+ BKV epitopes (ICS with peptide loaded HLA-matched and mismatched LCLs)). Conditions: CD8+ epitopes mapped in this study; T cells stimulated with peptide loaded HLA-matched and mismatched LCLs.
Format: cell-based, human
From the text: as §1, with “LCLs. […]” for “LCLs.”
VKNPYPISFLL (BK polyomavirus) was tested, and the “HLA Restriction” value was “Cw*07”.

From patent US20200197439A1, “IMM[…] POLYOMAVIRUSES” (Atara Biotherapeutics, Inc., priority 2016, published 2020)
